Measured values: PubChem BioAssay (NCI)
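Each compound was tested at five concentrations against cells in 96-well plates for 48 hours. At the GI50, growth is halved. The concentration for full growth arrest is given as TGI.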

Experiments:
Experiment in all cases: growth of human tumour cells (NCI), 48 h
[1] = tested on: HCT-116 colon
[2] = tested on: M14 melanoma
[3] = tested on: HL-60(TB) leukemia
[4] = tested on: TK-10 renal
[5] = tested on: SK-MEL-28 melanoma
[6] = tested on: HOP-92 NSCLC
[7] = tested on: SR leukemia
[8] = tested on: HOP-62 NSCLC
[9] = tested on: RXF 393 renal

SMILES | TGI [1] | TGI [2] | TGI [3] | TGI [4] | TGI [5] | TGI [6] | TGI [7] | TGI [8] | TGI [9] | GI50 [3]
CC(=O)Nc1ncc(Sc2ccccc2C(=O)O)s1 | > 100 µM | > 100 µM | > 100 µM | > 100 µM | > 100 µM | > 100 µM | > 100 µM | > 100 µM | > 100 µM | 
O=C1OC(c2ccc(O)c(Cl)c2)(c2ccc(O)c(Cl)c2)c2ccc(Br)c3cccc1c23 (tested in a mixture with another compound) | 36.3 µM | 49.6 µM | 41.8 µM | 37 µM | 36 µM | 26.1 µM | 45.4 µM | 40.3 µM | 32.5 µM | 17.5 µM
O=C(Oc1ccccc1)c1cc2cc(CCl)ccc2oc1=O | > 100 µM | 67.1 µM | > 100 µM | 43.8 µM | > 100 µM | 28.7 µM | > 100 µM | > 100 µM | 27.9 µM | 
C=C(C=O)c1c2c(nc3ccccc13)C(=O)c1ccccc1C2=O | 3.48 µM | 1.6 µM | 15.9 µM | 2.32 µM |  | 5.23 µM |  | 2.48 µM |  | 
O=C1c2cc3ccccc3cc2C2(c3ccc(Cl)cc3)N[C@H]3CCCC[C@@H]3N12 (stereo not given in full) | 18.8 µM | 8.65 µM | 55.6 µM | 27.3 µM | 28.1 µM | 98.5 µM | 48.7 µM | 20.3 µM | 24.2 µM | 
CCP(=O)(CC)C(Cl)(Cl)C(O)C(C)(C)C (stereo not given) | > 100 µM | > 100 µM |  | > 100 µM | > 100 µM | > 100 µM | > 100 µM | > 100 µM |  | 
NC1CC(=O)c2csc(Br)c21 (stereo not given) | > 44.2 µM | > 53.6 µM | 61.3 µM | 27.6 µM | 37.9 µM | 24.5 µM | 47.5 µM | > 72 µM | 36 µM | 
COc1ccc(Cc2nc3cc(C(F)(F)F)ccc3n2CCCN(C)C)cc1 |  | 28.7 µM | 27.1 µM | 50.2 µM | 34.6 µM | > 100 µM |  | > 100 µM | 29.2 µM | 
COc1cc(N=NN(C)C)c(C(C)c2c3cc(OC)c(OC)cc3cc[n+]2C)cc1OC (stereo not given) | > 100 µM | > 100 µM |  | 97.5 µM |  |  |  | > 100 µM | > 100 µM | 
C/C(=N\Nc1ccc([N+](=O)[O-])cc1[N+](=O)[O-])c1ccc2ccccc2n1 | > 100 µM | > 100 µM |  | > 100 µM | > 100 µM | > 100 µM | > 100 µM |  | > 100 µM | 
c1ccc(N=C2SC(=NNc3ccccc3)SC2=Nc2ccccc2)cc1 | > 100 µM |  | > 100 µM | > 100 µM | > 100 µM | > 100 µM | > 100 µM | > 100 µM | > 100 µM | 
O=P(O)(O)C(O)/C=C/c1ccccc1 (stereo not given) | > 100 µM | > 100 µM | > 100 µM | > 100 µM | > 100 µM | > 100 µM |  | > 100 µM | > 100 µM | 
O=C(O)CSCC(=O)Nc1ccc2cccc3c2c1CC3 | > 100 µM | > 100 µM | > 100 µM | > 100 µM | > 100 µM | > 100 µM |  | > 100 µM | > 100 µM | 
CCCNC(=S)N/N=C/c1cccc(C)n1 | 29 µM | 27.2 µM | 50.8 µM | > 100 µM |  | > 100 µM | 48.3 µM | > 100 µM | > 100 µM | 
COc1ccc2c3c1OC1C(=O)C=CC4(O)C(C2)NCC[C@@]314 (stereo not given in full) | 6.32 µM | 6.61 µM | 4.4 µM | 4.99 µM | 22.7 µM | 20.5 µM | 35.8 µM | 9.87 µM | 3.74 µM | 
Cc1cccc(Nc2cn(COCc3ccccc3)c(=O)[nH]c2=O)c1 | > 100 µM | > 100 µM | > 100 µM |  | > 100 µM | > 100 µM | > 100 µM | 86.3 µM | > 100 µM | 
COc1ccc(/C=C2\CSC/C(=C\c3ccc(OC)c(OC)c3OC)C2=O)c(OC)c1OC | 39 µM | 40.2 µM | 72.1 µM | > 100 µM | > 100 µM | 96.1 µM | 80.4 µM | > 100 µM | 53.7 µM | 
CCc1n[nH]c(=O)n1N1C(=O)C2CC=CCC2C1=O (stereo not given) | > 100 µM | > 100 µM |  | > 100 µM |  | > 100 µM | > 100 µM | > 100 µM | > 100 µM | 
O=C(Cn1nc(Br)c(Br)c1Br)c1ccccc1 | 38.6 µM | 92.1 µM | 30.5 µM | 53.1 µM | > 100 µM | 66.8 µM | 25.9 µM | > 100 µM | 36.4 µM | 
COc1cc(OC)c2c(c1OC)OCC(Cc1ccc(O)cc1)C2=O (stereo not given) | > 25 µM | > 25 µM | > 25 µM | > 25 µM | > 25 µM |  | > 25 µM | > 25 µM | > 25 µM | 
CCCN1C(=O)CCC2=C1CCc1c2ccc(Cl)c1Cl | > 100 µM | > 100 µM | 86.2 µM | 49.5 µM | > 100 µM | 56.6 µM | > 100 µM | > 100 µM | 50.5 µM | 
CC(C)(C)c1ccc(CN2CCN(C(c3ccccc3)c3ccc(Cl)cc3)CC2)cc1 (stereo not given) | > 100 µM | > 100 µM |  | > 100 µM | > 100 µM | > 100 µM | > 100 µM | > 100 µM | 82.7 µM | 
CC1CCCC2=C1C(c1ccc(Cl)cc1)n1c(s/c(=C\c3ccc(Cl)cc3)c1=O)=N2 (stereo not given) | > 100 µM | > 100 µM |  | > 100 µM | > 100 µM | > 100 µM |  | > 100 µM | > 100 µM | 
NNC(=O)CNC(=O)CSc1nnc(COc2ccc(Cl)cc2)n1-c1ccccc1 | > 100 µM | > 100 µM | > 100 µM | > 100 µM | > 100 µM | > 100 µM |  | > 100 µM | > 100 µM | 
COc1ccc(C2SCC(=O)N2c2ccc(-c3ccc(-n4c(-c5ccccc5)nc5ccccc5c4=O)cc3)cc2)cc1 (stereo not given) | > 100 µM | > 100 µM | > 100 µM | > 100 µM | > 100 µM | > 100 µM | > 100 µM | > 100 µM |  | 
